This passage reports cytotoxicity results from ChEMBL document CHEMBL3507680, “University of Dundee, Gates Library screen for HepG2 cell viability”.

The series can be described thus: Human HepG2 cell viability assay in 384 well format. In kind it is toxicity, cell-based. On the set-up: dose 125 nL, time 70.5 hour; concentration not given beside the values. The conditions noted are these: HepG2 cells, read-out: Inhibition.

Regarding `CC(CNC(=O)c1ccc(Cl)cc1F)N1CCN(C)CC1` (stereo not given), the cytotoxicity at 70.5 h turned out to be 13.3%.

Turning to `COc1ccccc1C(=O)NS(=O)(=O)c1cncc(Br)c1`, the cytotoxicity at 70.5 h was found to be 9.9%.

For `Cn1cc(Br)c(=O)c(NS(=O)(=O)c2ccccc2F)c1`, the cytotoxicity at 70.5 h is -9.33%.

In the case of `CS(=O)(=O)NCCC1CCCCN1C(=O)NCCc1ccccn1` (stereo not given), the cytotoxicity at 70.5 h is -14.3%.

Turning to `Cc1cc(CN2CCN(C(=O)CCc3cccs3)CC2)on1`, the cytotoxicity at 70.5 h was -18.8%.

As to `O=C1NCC2CN(Cc3ccccc3OCc3ccccn3)CCN12` (stereo not given), the cytotoxicity at 70.5 h is -13.1%.

Take `CCC(CC)N(C)S(=O)(=O)c1ccc(CCNC(C)=O)s1`: the cytotoxicity at 70.5 h worked out at 1.4%.

For `O=C(CSc1ccc2c(c1)OCCO2)NS(=O)(=O)c1cccs1`, the cytotoxicity at 70.5 h is -6.92%.

Take `CC(NC(=O)N(C)Cc1ccsc1)c1nncn1C` (stereo not given): the cytotoxicity at 70.5 h was -2.73%.

Regarding `O=C(NCC(c1cccs1)N1CCOCC1)c1ccc(F)cc1Cl` (stereo not given), the cytotoxicity at 70.5 h is -5.9%.

For `COc1ccc(-c2nnc(CN3CCNC(=O)C3)o2)cc1`, the cytotoxicity at 70.5 h was -2.61%.

For the compound `CC(Oc1ccc(S(C)(=O)=O)cc1)C(=O)NC(N)=O` (stereo not given), the cytotoxicity at 70.5 h was -7.21%.

With `Cc1ccc(-c2nnc(CN3CCNC(=O)C3)o2)cc1`, the cytotoxicity at 70.5 h was -4.25%.

In the case of `Cc1cc(NC(=O)NCCc2ccc(S(N)(=O)=O)cc2)n(C)n1`, the cytotoxicity at 70.5 h was -6.71%.

Consider `Cc1cc(NC(=O)NCCc2cccnc2)n(C)n1`, for which the cytotoxicity at 70.5 h is -3.88%.

Turning to `CC(Cn1cccn1)NC(=O)Nc1cccnc1` (stereo not given), the cytotoxicity at 70.5 h was -8.71%.

Consider `COc1ccc(NC(=O)NC(C)Cn2cccn2)cn1` (stereo not given), for which the cytotoxicity at 70.5 h is -11.6%.

As to `CC(NC(=O)N(C)Cc1ccc2c(c1)OCO2)c1nncn1C` (stereo not given), the cytotoxicity at 70.5 h is -8.56%.

For the compound `NC(=O)CN1CCCN(C(=O)c2ccn(-c3ccc(F)cc3)n2)CC1`, the cytotoxicity at 70.5 h was 6.29%.

With `CNC(=O)CN(C)Cc1ccc(F)cc1Cl`, the cytotoxicity at 70.5 h is -6.72%.

For the compound `Cn1ccnc1-c1cccc(NC(=O)NCCCN2CCOCC2)c1`, the cytotoxicity at 70.5 h is -2.94%.

Turning to `CCn1nc2c(cc1=O)CN(CC(=O)Nc1cc(C(C)C)no1)CC2`, the cytotoxicity at 70.5 h is -8.8%.

With `O=C(CSc1ccc2c(c1)OCCO2)NS(=O)(=O)c1cccnc1`, the cytotoxicity at 70.5 h was -3.19%.

For the compound `O=C(CSc1ccc2c(c1)OCCO2)NS(=O)(=O)c1ccccc1`, the cytotoxicity at 70.5 h is -8.6%.

As for `Cn1cc(-c2csc(N3CCCCCC3)n2)cn1`, the cytotoxicity at 70.5 h is -1.01%.

Turning to `CC(=O)Nc1ccc(CN2CCOC2=O)cc1`, the cytotoxicity at 70.5 h is -9.56%.

On to `CSc1ccc(S(=O)(=O)NC2CNC(=O)C2)cc1` (stereo not given), for which the cytotoxicity at 70.5 h is -3.59%.

`CCOCCNC(=O)Nc1cccc(-c2nccn2C)c1`: the cytotoxicity at 70.5 h is -10%.

As to `Cn1cc(-c2nc(CN3CCn4c(nnc4C4CC4)C3)cs2)cn1`, the cytotoxicity at 70.5 h was -4.85%.

Regarding `O=C(CSc1ccc2c(c1)OCCO2)NS(=O)(=O)c1ccccc1F`, the cytotoxicity at 70.5 h is -5.01%.

With `COCCNC(=O)CN(C)Cc1ccc(F)cc1Cl`, the cytotoxicity at 70.5 h is -10.1%.

Take `CC(C#N)CSc1ccccc1NCC(=O)Nc1ccccc1` (stereo not given): the cytotoxicity at 70.5 h was found to be 14.3%.

Take `COc1ccc(CNC(=O)CN2CCc3ccccc32)cc1`: the cytotoxicity at 70.5 h was found to be 27%.

For `O=C(CSc1nncs1)N1CCN(Cc2ccc(Cl)cc2)CC1`, the cytotoxicity at 70.5 h came to 1.53%.

For the compound `O=C1NCCCCC1Sc1n[nH]c(=O)n1C1CC1` (stereo not given), the cytotoxicity at 70.5 h was 15.9%.

As for `COc1cccnc1NC(=O)COc1c(C)cccc1C`, the cytotoxicity at 70.5 h turned out to be 18.3%.

For the compound `O=C(CCc1ccsc1)NCC1CCN(Cc2cccs2)CC1`, the cytotoxicity at 70.5 h was -4.26%.

On to `CC1CCN(CCNC(=O)C2CCN(C(=O)NC(C)C)CC2)CC1`, for which the cytotoxicity at 70.5 h was -6.3%.

Take `COc1cccc(NC(=O)NC(C)(C)c2noc(C)n2)c1`: the cytotoxicity at 70.5 h was -4.79%.

As for `CNC(=O)CCNC(=O)Nc1cccc(Cl)c1SC(F)F`, the cytotoxicity at 70.5 h came out at 0.534%.

In the case of `O=C(CNC(=O)Nc1cccc(Cl)c1SC(F)F)NC1CC1`, the cytotoxicity at 70.5 h was 16.9%.

On to `Cn1cc(CC(=O)N2CCOC(c3nc(C(C)(C)C)n[nH]3)C2)cn1` (stereo not given), for which the cytotoxicity at 70.5 h was -1.3%.

For `COCCN(Cc1ccc(F)cc1Cl)C(=O)c1csnn1`, the cytotoxicity at 70.5 h is -2.37%.

Consider `O=C(Nc1ccnc(OC2CCOC2)c1)c1cccs1` (stereo not given), for which the cytotoxicity at 70.5 h was -4.23%.

For `Cc1ccn(-c2ccccc2NCc2scnc2C)n1`, the cytotoxicity at 70.5 h was -1.69%.

For `OCC1CCN(Cc2cc3c(cc2Br)OCCO3)CC1`, the cytotoxicity at 70.5 h worked out at 17.4%.

As for `CCC1CN(Cc2nnc(C3CC3)o2)CCN1CCOC` (stereo not given), the cytotoxicity at 70.5 h worked out at 0.024%.

With `CCOCCN1CCN(Cc2nnc(C3CC3)o2)CC1C` (stereo not given), the cytotoxicity at 70.5 h was -3.62%.

For `CN(Cc1ccco1)C(=O)Nc1ccc(=O)n(C)c1`, the cytotoxicity at 70.5 h turned out to be 0.639%.

`COc1cccc(CNC(C)c2ccc(-n3ccnc3)cc2)c1O` (stereo not given): the cytotoxicity at 70.5 h is -5.24%.

Consider `Cn1cc(CNC2CCS(=O)(=O)C2)c(-c2cc3ccccc3o2)n1` (stereo not given), for which the cytotoxicity at 70.5 h worked out at 5.22%.

With `CCCc1[nH]n(C)c(=N)c1-c1ccc2c(c1)OCO2`, the cytotoxicity at 70.5 h was -3.98%.

With `CCn1c(=O)n(Cc2nc(C3CC3)no2)c2ccccc21`, the cytotoxicity at 70.5 h amounted to 23.4%.

For `CCNC(=O)N1CCC(NC(=O)NCCc2cc3ccccc3o2)C1` (stereo not given), the cytotoxicity at 70.5 h was 11.5%.

Regarding `COc1ccc(Cl)cc1CNC(=O)CN1CCC2(CCOC2)C1` (stereo not given), the cytotoxicity at 70.5 h turned out to be 20%.

Turning to `CCOc1cccc(CNC(=O)CN2CCC3(CCOC3)C2)c1` (stereo not given), the cytotoxicity at 70.5 h is -6.18%.

With `CC(NC(=O)N(C)Cc1ccncc1)c1cn(-c2ccccc2)nn1` (stereo not given), the cytotoxicity at 70.5 h was 4.1%.

As for `CCCc1nc(Cn2c(=O)n(C)c3ccccc32)no1`, the cytotoxicity at 70.5 h is -6.48%.

For the compound `CCOc1cccc(CNC(C)c2ccc(-n3ccnc3)cc2)c1O` (stereo not given), the cytotoxicity at 70.5 h is 2.29%.

Turning to `CCC(SC)C(=O)N1CCC(n2ccnn2)CC1` (stereo not given), the cytotoxicity at 70.5 h is -7.09%.

`O=C(C(C1CC1)C1CC1)N1CCC(n2ccnn2)CC1`: the cytotoxicity at 70.5 h is -9.3%.

For `Fc1ccc(C2CN(c3ncnc4[nH]ncc34)CCO2)cc1` (stereo not given), the cytotoxicity at 70.5 h worked out at 12.2%.

Regarding `c1ccc(-n2nnnc2NCc2ccc3c(c2)OCO3)cc1`, the cytotoxicity at 70.5 h was 4.41%.

In the case of `CC(Nc1cnn(C)c(=O)c1Cl)c1ccc(F)c(F)c1` (stereo not given), the cytotoxicity at 70.5 h was determined as 39.8%.

Take `NC(=O)CNC1(c2ccc(Cl)cc2)CCCC1`: the cytotoxicity at 70.5 h came to 0.922%.

Regarding `Cc1cc(S(C)(=O)=O)c(C)c(S(=O)(=O)N2CCCCCC2)c1`, the cytotoxicity at 70.5 h was -7.91%.

For `Cc1cc(S(C)(=O)=O)c(C)c(S(=O)(=O)N2CCN(C)CC2)c1`, the cytotoxicity at 70.5 h turned out to be 32.6%.

In the case of `CC(C)(C)CC(=O)NCC(=O)Nc1ccn(Cc2ccncc2)n1`, the cytotoxicity at 70.5 h is -20.8%.

For the compound `NC(=O)NC(=O)CNC1(c2ccc(Cl)cc2)CCC1`, the cytotoxicity at 70.5 h stood at 2.08%.

As to `Cn1nc(Br)c2c(NCCSCCCO)ncnc21`, the cytotoxicity at 70.5 h is -10.5%.

For the compound `CC(NC(=O)N1CCNC(=O)CC1)c1ccc(C(F)(F)F)cc1` (stereo not given), the cytotoxicity at 70.5 h is -19.2%.

`CCOCCN1CCCC1CS(N)(=O)=O` (stereo not given): the cytotoxicity at 70.5 h was -10.1%.

Take `CC(NC(=O)N1CCNC(=O)CC1)c1ccc(OC(F)F)cc1` (stereo not given): the cytotoxicity at 70.5 h is -8.12%.

Take `Cc1ccc(-n2nc(C)cc2N)nn1`: the cytotoxicity at 70.5 h was -14.8%.

In the case of `CCC(NC(=O)NCc1cccc(N(C)C)n1)c1cccs1` (stereo not given), the cytotoxicity at 70.5 h was -11.8%.

Take `CSCC(CCO)NC(=O)c1cccc(C)c1Cl` (stereo not given): the cytotoxicity at 70.5 h was -13.9%.

On to `CC(Nc1cnn(C)c(=O)c1Cl)c1ccc(F)cc1` (stereo not given), for which the cytotoxicity at 70.5 h was -13.1%.

In the case of `CN(CC(=O)NCc1ccco1)Cc1nc2c(s1)CCCC2`, the cytotoxicity at 70.5 h was 4%.

`COCCn1ccc(NC(=O)CNC(=O)CC(C)(C)C)n1`: the cytotoxicity at 70.5 h came out at 27.5%.

For the compound `COCCN1CCN(CC(=O)N(C)Cc2ccc(F)cc2)CC1C` (stereo not given), the cytotoxicity at 70.5 h was 23.3%.

With `CN(CCCc1cc(-c2cccc(F)c2)n[nH]1)C(=O)CCn1cncn1`, the cytotoxicity at 70.5 h is -13.6%.

With `O=C(c1cnns1)N1CCN(Cc2ccc(F)cc2Cl)CC1`, the cytotoxicity at 70.5 h was -4.81%.

`COc1cccc(N2CCC(CNC(=O)NCc3ccco3)C2)c1` (stereo not given): the cytotoxicity at 70.5 h is -0.834%.

Consider `COc1cccc(N2CCC(CNC(=O)N(C)Cc3ccco3)C2)c1` (stereo not given), for which the cytotoxicity at 70.5 h is -3.66%.

Consider `COCCN1CCN(CC(=O)N(C)Cc2ccc(C)o2)CC1C` (stereo not given), for which the cytotoxicity at 70.5 h was -12.6%.

As for `CS(=O)(=O)CCNCc1ccc(OCc2ccncc2)cc1`, the cytotoxicity at 70.5 h came to 19.2%.

Take `Cn1nc2c(cc1=O)CN(Cc1ccc(-n3cccn3)cc1)CC2`: the cytotoxicity at 70.5 h was -6.38%.

For the compound `CN1CCC(NC(=O)Nc2ccc(Cl)c(F)c2)C1=O` (stereo not given), the cytotoxicity at 70.5 h came out at 2.58%.

For `CC(C)CN1C(=O)C2(CCCC2)NC12CCSCC2`, the cytotoxicity at 70.5 h turned out to be 0.871%.

For the compound `O=C1CN(C(=O)C2CCOCC2)CCN1Cc1ccc(Cl)cc1`, the cytotoxicity at 70.5 h was 0.576%.

With `CN(C)c1nccc(CNS(=O)(=O)c2cc(Cl)cc(Cl)c2)n1`, the cytotoxicity at 70.5 h was -1.35%.

As to `OCC(O)CSCc1cc(Cl)ccc1Cl` (stereo not given), the cytotoxicity at 70.5 h was -3.91%.

For `OCC(O)CSCc1ccc(F)cc1Cl` (stereo not given), the cytotoxicity at 70.5 h is 19.6%.

Take `CCN(Cc1cccc(NC(=O)COCCOC)c1)C(C)=O`: the cytotoxicity at 70.5 h is 1.86%.

Regarding `COc1ccccc1N1CCC(CNC(=O)N(C)Cc2ccco2)C1` (stereo not given), the cytotoxicity at 70.5 h was -3.56%.

Consider `CN(CCCc1cc(-c2ccc(F)cc2)n[nH]1)C(=O)CCn1cncn1`, for which the cytotoxicity at 70.5 h worked out at 1.64%.

Consider `CN(CCCc1cc(-c2ccccc2)n[nH]1)C(=O)CCCn1cncn1`, for which the cytotoxicity at 70.5 h is -6.04%.

Take `COc1cc(F)c(S(=O)(=O)NCc2ccnc(N(C)C)n2)cc1OC`: the cytotoxicity at 70.5 h is -8.38%.

As to `Cc1cccc(CNCC2COC3(CCCC3)O2)c1C` (stereo not given), the cytotoxicity at 70.5 h was 3.58%.

With `O=C(NCc1cccnc1N1CCCCC1)c1ccc2cc[nH]c2c1`, the cytotoxicity at 70.5 h is -15.2%.

Regarding `O=C(NCc1ccc(Br)c(F)c1)Nc1cn[nH]c1`, the cytotoxicity at 70.5 h is -22.7%.

On to `Cc1noc(C)c1CN1CCCC1c1nnc2ccccn12` (stereo not given), for which the cytotoxicity at 70.5 h was -23.7%.

On to `Cc1ccc(CNC(=O)NCc2ccco2)s1`, for which the cytotoxicity at 70.5 h is -24.6%.

Turning to `CCS(=O)(=O)N1CCN(C(C)c2ncc(-c3ccccc3)o2)CC1` (stereo not given), the cytotoxicity at 70.5 h is -19.2%.

As for `CC(O)CN1CCN(C(=O)CCOc2ccccc2F)CC1` (stereo not given), the cytotoxicity at 70.5 h is -17.1%.
